Patent publication US6423855B1, “Cytoprotective compounds” (Virginia Commonwealth University, priority 1996, dated 2002)
≈ marks a conversion by molar mass, not a printed value.

Columns and labels:
mice = assay: acute toxicity (LD50 study), single IP dose; type: in vivo
Description: An LD50 study was conducted to determine a lethal dose for PX-13 suspended in HEPES buffer at a pH of 7.4. A single IP dose of 50, 100, 200 or 400 mg/kg was administered to mice (n=6 per group). […] No necropsy was performed.

[1] = test system: PLA2 activity in extracts of rat bowel; assay: PLA2 activity in extracts of rat bowel; type: biochemical
ischemic bowel = assay: PLA2 release from ischemic bowel into media; details: 24 hrs of ischemia
Description: The addition of PX-13 reduced the enzyme release by more than 80% during 24 hrs of ischemia.

[2] = test system: ultraviolet-induced erythema; assay: protection against ultraviolet-induced erythema; type: in vivo, hairless albino mice; details: 1 = Best, 4 = Worst
Description: The human skin tests were conducted on three volunteer female subjects, ages 29-32; a cream base with no added active was included as a control, while the untreated skin served as an additional basis for evaluation. Sunburn tests were performed on a total of 30 hairless albino mice.
5.Protection against ultraviolet-induced ervthema. The protection against ultraviolet-induced erythema (i.e., the burn and irritation produced after exposure to ultraviolet radiation), was measured by first irradiating 12 mice with destructive 3130 angstrom (Å) rays, applying the creams, and then evaluating the skin cells for erythema.

[3] = test system: rat dorsal root ganglion cells; assay: cultured rat dorsal root ganglion cells exposed to human disc PLA2; type: cell-based
Description: Primary cultures of rat dorsal root ganglion cells were used. Cells were washed 3-times with media to remove serum. Then, PX-13 (20 uM) in HEPES buffer or a buffer control was applied to the cells. After 10 min of incubation, purified human disc PLA2 (activity 1 umol/min) was added and the cells were incubated for an additional 60-90 min. Cells were then observed, fixed, and photographed 1.5 hrs after addition of PLA2.

[4] = test system: thrombin-stimulated platelets; assay: serotonin release by thrombin-stimulated platelets; type: cell-based
Description: Applicants have also observed that PX-13 inhibited serotonin release by thrombin-stimulated platelets. This observation supports the contention that the PX compounds of the present invention may block release of inflammatory mediators in the coagulation cascade. This observation also supports the use of PX compounds to inhibit thrombin-induced platelet aggregation and to act as anti-clotting agents.

[5] = target: T1, purified human disc type II, PLA2 (Homo sapiens, UniProt P14555); assay: inhibition of purified human disc type II PLA2; type: biochemical
T1 construct: the purified human disc type II, PLA2; from tissue; host or cells: human vertebral (herniated) disc
Description: Both PX-13 and PX-18 inhibit the purified human disc type II, PLA2. PLA2 activity was measured as described in Franson et al., Prostaglandins, Leukotrienes and Essential Fatty Acids, 43:63-70, 1991, which is herein incorporated by reference in its entirety.

clone W2 (P.falciparum) = assay: 3H-hypoxanthine incorporation, P.falciparum clone W2; type: cell-based; details: Plasmodium falciparum, W2; chloroquine resistant, mefloquine sensitive clone, RBC culture; read-out: IC50 growth
[6] = test system: rat dorsal root ganglion cells; assay: cultured rat dorsal root ganglion cells exposed to snake venom PLA2; type: cell-based; details: 1-3 umols/min/mg for 60 min
small bowel graft = assay: small bowel transplantation ischemia-reperfusion injury; type: in vivo, rat
Description: These drugs were also tested for their ability to enhance the preservation of tissues stored for subsequent transplantation. The small bowel was removed from rats, washed free of luminal contents and the tissue stored in University of Wisconsin (UW) preservative media ±40 uM PX-13 or mepacrine for 48 hrs. The graft was then transplanted into rats with or without intravenous (IV) infusion of 20 mg/kg PX-13 or mepacrine at the time of transplantation.

[7] = test system: purified human disc PLA2 induced paw edema; assay: human disc PLA2-induced mouse paw edema; type: in vivo
Description: Edema was induced by injection of 1 ug of purified human disc PLA2 into the mouse footpad. PX-13 was administered either by gavage or intraperitoneally (IP) 60 min prior to enzyme challenge. Forty-five min after enzyme injection, the animals were sacrificed and the control and injected paws were removed and weighed to assess edema.

epidermis cell turnover = assay: cell turnover rate (dansyl chloride); type: in vivo, human
Description: Two PX compounds PX-11 and PX-13 were evaluated in a cream formulation prepared under GMP. The chemicals were formulated into a bland cream and evaluated in the following human or mouse skin tests: (1) occluded patch test for irritation; (2) cell turnover rate; (3) transepidermal water loss; (4) skin moisturization; and (5) reduction in erythema after induced sunburn. The human skin tests were conducted on three volunteer female subjects, ages 29-32; a cream base with no added active was included as a control, while the untreated skin served as an additional basis for evaluation. Sunburn tests were performed on a total of 30 hairless albino mice. 2. Cell turnover rate: This parameter was measured by adsorption of dansyl chloride, in which 3% dansyl chloride was incorporated into petrolatum. This salve was applied over a 2.5 cm diameter circular area in the upper arm and a patch applied. 24 hours later the patch was removed. The intensity of dansyl chloride fluorescence was indicative of the cell turnover rate in the epidermis.

[8] = test system: reflex sympathetic dystrophy (RSD); assay: topical cream in patients with reflex sympathetic dystrophy; type: in vivo, human
Description: A patient presents with severe RSD characterized by persistent pain and limitation of movement at the wrist joint. […] Another patient presents with a two year history of RSD in the knee joint. This patient previously received arthroscopic evaluations. This patient also had limited range of motion and became addicted to narcotics in an attempt to reduce pain. […] The reduction in pain is immediate and the increased range of motion occurs within 10-20 minutes. This patient, who had been unemployed for an extended period, eliminated intake of narcotics and returned to work. A third patient presented with RSD of the foot and ankle. This patient had no eversion or inversion of the foot.

clone D6 (P. falciparum) = assay: 3H-hypoxanthine incorporation, P.falciparum clone D6; type: cell-based; details: Plasmodium falciparum, D6, read-out: IC50 growth
[9] = patient 2, knee, cream combined with sympathetic blockade

T1 sequence (P14555 21-144): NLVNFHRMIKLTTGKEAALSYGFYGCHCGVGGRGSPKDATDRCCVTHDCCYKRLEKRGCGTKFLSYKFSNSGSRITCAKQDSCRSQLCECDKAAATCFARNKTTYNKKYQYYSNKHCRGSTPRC

SMILES: CCCCCCCC/C=C\CCCCCCCC(=O)OCC(COC(=O)CCCCCCC/C=C\CCCCCCCC)(COC(=O)CCCCCCC/C=C\CCCCCCCC)NCCS(=O)(=O)O [PX-13, 2-[Tris(oleoyloxymethyl)methylamino]-1-ethanesulfonic acid]
- deaths at 144 hrs (mice; 400 mg/kg group, n=6): one animal in the 400 mg/kg group died
- tolerability (mice; mouse, in vivo): extremely well tolerated
- effectiveness as PLA2 inhibitor relative to mepacrine [1]: more than 2 log units
- inhibition of PLA2 activity [1]: inhibited
- reduction of PLA2 enzyme release (ischemic bowel): more than 80%
- Post-Radiation Erythema Ranking Mean ([2]; Mean): 4.7
- Post-Radiation Erythema Ranking ([2]; Subject 3): 4
- cell morphology, compound alone ([3]; 20 uM alone): indistinguishable from control cultures
- cell morphology, compound + human disc PLA2 ([3]; 20 uM, PLA2 activity 1 umol/min, 60-90 min): indistinguishable from control cultures
- serotonin release [4]: inhibited
- IC50 [5]: 2500 nM
- IC50 (clone W2 (P.falciparum)): 13 µg/mL (≈ 12.7 µM)
- protection against toxicity of purified snake venom PLA2 [6]: protected
- gross and microscopic injury to tissue (small bowel graft; 40 uM in UW media 48 hrs, with or without 20 mg/kg IV at transplantation): dramatically reduced
- bowel color after transplantation (small bowel graft; rat, in vivo): maintained normal bowel color
- protection against ischemia and reperfusion injury (small bowel graft; small bowel transplantation): protect
- Percent Protection ([7]; 20 mg/kg gavage, 60 min prior to enzyme, paws weighed 45 min after): 33%
- Percent Protection ([7]; 40 mg/kg IP): 48%
- Percent Protection ([7]; 40 mg/kg gavage): 55%
- Percent Protection ([7]; 60 mg/kg gavage): 63%
- Days to Cell Renewal Treated (epidermis cell turnover; cream-treated skin, upper arm): 21.6 days
- % Change in Cell Turnover Time (epidermis cell turnover; treated vs untreated skin): −29%
- pain relief ([8]; patient 1, wrist, about 4% in cream of Example 15, topical): immediate pain relief
- pain and range of motion [8, 9]: decreases the patient's report of pain and provides a full range of motion
- time to increased range of motion [8, 9]: 10 to 20 min
- time to full eversion and inversion ([8]; patient 3, foot and ankle, about 4% cream): ≤ 20 min
- pain relief ([8]; patient 3, foot and ankle, about 4% in cream vehicle): immediate and complete pain relief
- IC50 (clone D6 (P. falciparum)): 17 µg/mL (≈ 16.6 µM)
